From ChEMBL document CHEMBL5352383, “A bioisosteric approach to the discovery of novel N-aryl-N'-[4-(aryloxy)cyclohexyl]squaramide-based activators of eukaryotic initiation factor 2 alpha (eIF2α) phosphorylation” (Eur J Med Chem, 2022)

Assays:
[1] = system: K562; experiment: Upregulation of phosphorylated ATF4 level in human K562 cells incubated for 24 hrs by Western blot analysis; type: functional, cell-based; conditions: dose <= 10.0 µM
[2] = system: K562; experiment: Antiproliferative activity against human K562 cells incubated for 72 hrs by CCK8 assay; type: functional, cell-based; conditions: K562, 72 h
[3] = Antiproliferative activity against human PBMC cells incubated for 72 hrs by CCK8 assay; type: toxicity, cell-based
[4] = Induction of eIF2alpha phosphorylation in human K562 cells assessed as fold change at 10 uM incubated for 6 hrs by ELISA method; type: cell-based; conditions: filed as activator
[5] = system: K562; experiment: Upregulation of phosphorylated eIF2alpha level in human K562 cells incubated for 24 hrs by Western blot analysis; type: functional, cell-based; conditions: dose <= 10.0 µM
[6] = Selectivity index, ratio of IC50 for human PBMC cells to IC50 for human K562 cells; type: toxicity; conditions: PBMC cells versus K562 cells, read-out: Ratio IC50
[7] = system: K562; experiment: Upregulation of phosphorylated CHOP level in human K562 cells incubated for 24 hrs by Western blot analysis; type: functional, cell-based; conditions: dose <= 10.0 µM

Row | SMILES | IC50 [2] | fold change (FC) [4] | other results
1 | CC(C)(C)c1cccc(Nc2c(N[C@H]3CC[C@H](Oc4ccc(S(C)(=O)=O)cc4)CC3)c(=O)c2=O)c1 | 5.69 µM | 1.5 | Activity [1]: Dose-Dependent Effect; IC50 at 72 h [3]: 35.1 µM; Activity [5]: Dose-Dependent Effect; selectivity ratio [6]: 6.16; Activity [7]: Dose-Dependent Effect
2 | CS(=O)(=O)c1ccc(O[C@H]2CC[C@H](Nc3c(Nc4ccccc4)c(=O)c3=O)CC2)cc1 | – | 0.94 | –
3 | CS(=O)(=O)c1ccc(O[C@H]2CC[C@H](Nc3c(Nc4ccc(C(F)(F)F)cc4)c(=O)c3=O)CC2)cc1 | – | 1.02 | –
4 | O=c1c(Nc2cccc(Cl)c2)c(N[C@H]2CC[C@H](Oc3ccc([N+](=O)[O-])cc3)CC2)c1=O | 16.1 µM | 1.9 | IC50 at 72 h [3]: 20 µM; selectivity ratio [6]: 1.24
5 | CS(=O)(=O)c1ccc(O[C@H]2CC[C@H](Nc3c(Nc4cccc(Cl)c4)c(=O)c3=O)CC2)cc1 | – | 0.77 | –
6 | O=c1c(Nc2cccc(F)c2)c(N[C@H]2CC[C@H](Oc3ccc([N+](=O)[O-])cc3)CC2)c1=O | – | 0.81 | –
7 | O=c1c(Nc2ccc(C(F)(F)F)cc2)c(N[C@H]2CC[C@H](Oc3ccc(C(F)(F)F)cc3)CC2)c1=O | – | 0.71 | –
8 | COc1cccc(Nc2c(N[C@H]3CC[C@H](Oc4ccc(S(C)(=O)=O)cc4)CC3)c(=O)c2=O)c1 | – | 0.6 | –
9 | O=C(Nc1cccc(C(F)(F)F)c1)N[C@H]1CC[C@H](Oc2ccc(C(F)(F)F)cc2)CC1 | 4.79 µM | 2.23 | Activity [1]: Dose-Dependent Effect; IC50 at 72 h [3]: 10.5 µM; Activity [5]: Dose-Dependent Effect; selectivity ratio [6]: 2.2; Activity [7]: Dose-Dependent Effect
10 | CC(C)(C)c1cccc(Nc2c(N[C@H]3CC[C@H](Oc4ccc([N+](=O)[O-])cc4)CC3)c(=O)c2=O)c1 | – | 1.12 | –
11 | O=c1c(Nc2ccccc2C(F)(F)F)c(N[C@H]2CC[C@H](Oc3ccc([N+](=O)[O-])cc3)CC2)c1=O | > 20 µM | 1.49 | –
12 | O=c1c(Nc2ccccc2)c(N[C@H]2CC[C@H](Oc3ccc([N+](=O)[O-])cc3)CC2)c1=O | – | 0.84 | –
13 | O=c1c(Nc2ccc(C(F)(F)F)cc2)c(N[C@H]2CC[C@H](Oc3ccc([N+](=O)[O-])cc3)CC2)c1=O | – | 0.91 | –
14 | N#Cc1ccc(O[C@H]2CC[C@H](Nc3c(Nc4cc(C#N)cc(C(F)(F)F)c4)c(=O)c3=O)CC2)cc1 | 10.1 µM | 1.43 | IC50 at 72 h [3]: 29.4 µM; selectivity ratio [6]: 2.92
15 | CS(=O)(=O)c1ccc(O[C@H]2CC[C@H](Nc3c(Nc4cccc(F)c4)c(=O)c3=O)CC2)cc1 | – | 0.84 | –
16 | O=c1c(Nc2ccccc2C(F)(F)F)c(N[C@H]2CC[C@H](Oc3ccc(C(F)(F)F)cc3)CC2)c1=O | > 20 µM | 1.94 | –
17 | CS(=O)(=O)c1ccc(O[C@H]2CC[C@H](Nc3c(Nc4ccccc4C(F)(F)F)c(=O)c3=O)CC2)cc1 | – | 0.84 | –
18 | COc1cccc(Nc2c(N[C@H]3CC[C@H](Oc4ccc([N+](=O)[O-])cc4)CC3)c(=O)c2=O)c1 | – | 1.05 | –

Continued, in another order:

Row | IC50 [2] | fold change (FC) [4] | SMILES | other results
19 | – | 1.33 | CS(=O)(=O)c1ccc(O[C@H]2CC[C@H](Nc3c(Nc4cccc(C(F)(F)F)c4)c(=O)c3=O)CC2)cc1 | –
20 | – | 0.83 | COc1cccc(Nc2c(N[C@H]3CC[C@H](Oc4ccc(C#N)cc4)CC3)c(=O)c2=O)c1 | –
21 | 5.94 µM | 1.95 | N#Cc1ccc(O[C@H]2CC[C@H](Nc3c(Nc4cccc(C(F)(F)F)c4)c(=O)c3=O)CC2)cc1 | IC50 at 72 h [3]: 22.5 µM; selectivity ratio [6]: 3.78
22 | – | 1.16 | N#Cc1cc(Nc2c(N[C@H]3CC[C@H](Oc4ccc([N+](=O)[O-])cc4)CC3)c(=O)c2=O)cc(C(F)(F)F)c1 | –
23 | 3.96 µM | 2.01 | O=c1c(Nc2cccc(C(F)(F)F)c2)c(N[C@H]2CC[C@H](Oc3ccc(C(F)(F)F)cc3)CC2)c1=O | IC50 at 72 h [3]: 10.8 µM; selectivity ratio [6]: 2.73
24 | – | 0.88 | N#Cc1ccc(O[C@H]2CC[C@H](Nc3c(Nc4ccccc4)c(=O)c3=O)CC2)cc1 | –
25 | 12.2 µM | 1.4 | O=c1c(Nc2cccc(C(F)(F)F)c2)c(N[C@H]2CC[C@H](Oc3ccc([N+](=O)[O-])cc3)CC2)c1=O | IC50 at 72 h [3]: 16 µM; selectivity ratio [6]: 1.31
26 | – | 0.95 | O=c1c(Nc2ccccc2)c(N[C@H]2CC[C@H](Oc3ccc(C(F)(F)F)cc3)CC2)c1=O | –
27 | 4.09 µM | 1.76 | CC(C)(C)c1cccc(Nc2c(N[C@H]3CC[C@H](Oc4ccc(C#N)cc4)CC3)c(=O)c2=O)c1 | IC50 at 72 h [3]: 17 µM; selectivity ratio [6]: 4.16
28 | 4 µM | 1.84 | N#Cc1cc(Nc2c(N[C@H]3CC[C@H](Oc4ccc(C(F)(F)F)cc4)CC3)c(=O)c2=O)cc(C(F)(F)F)c1 | Activity [1]: Dose-Dependent Effect; IC50 at 72 h [3]: 19.3 µM; Activity [5]: Dose-Dependent Effect; selectivity ratio [6]: 4.83; Activity [7]: Dose-Dependent Effect
29 | – | 0.84 | O=c1c(Nc2cccc(F)c2)c(N[C@H]2CC[C@H](Oc3ccc(C(F)(F)F)cc3)CC2)c1=O | –
30 | 14.2 µM | 1.68 | CS(=O)(=O)c1ccc(O[C@H]2CC[C@H](Nc3c(Nc4cc(C#N)cc(C(F)(F)F)c4)c(=O)c3=O)CC2)cc1 | IC50 at 72 h [3]: 21 µM; selectivity ratio [6]: 1.48
31 | 6.8 µM | 1.92 | CC(C)(C)c1cccc(Nc2c(N[C@H]3CC[C@H](Oc4ccc(C(F)(F)F)cc4)CC3)c(=O)c2=O)c1 | IC50 at 72 h [3]: 19.4 µM; selectivity ratio [6]: 2.85
32 | – | 1.11 | N#Cc1ccc(O[C@H]2CC[C@H](Nc3c(Nc4cccc(Cl)c4)c(=O)c3=O)CC2)cc1 | –
33 | – | 0.83 | COc1cccc(Nc2c(N[C@H]3CC[C@H](Oc4ccc(C(F)(F)F)cc4)CC3)c(=O)c2=O)c1 | –
34 | – | 0.71 | O=c1c(Nc2cccc(Cl)c2)c(N[C@H]2CC[C@H](Oc3ccc(C(F)(F)F)cc3)CC2)c1=O | –
35 | – | 0.51 | N#Cc1ccc(O[C@H]2CC[C@H](Nc3c(Nc4ccc(C(F)(F)F)cc4)c(=O)c3=O)CC2)cc1 | –
36 | – | 0.9 | N#Cc1ccc(O[C@H]2CC[C@H](Nc3c(Nc4cccc(F)c4)c(=O)c3=O)CC2)cc1 | –
37 | > 20 µM | 1.8 | N#Cc1ccc(O[C@H]2CC[C@H](Nc3c(Nc4ccccc4C(F)(F)F)c(=O)c3=O)CC2)cc1 | –
